Some results are limits rather than exact numbers.

Drawing on US8637557B2, “Aminothiazole derivative” (Taisho Pharmaceutical Co., Ltd, priority 2009, dated 2014), this text covers IC50 for 54 compounds.

The first assay deals with T1, human PI 3-kinase p120γ (Homo sapiens, UniProt P48736).
T1 construct: purchased Millipore Corporation
T1 sequence (P48736 whole entry): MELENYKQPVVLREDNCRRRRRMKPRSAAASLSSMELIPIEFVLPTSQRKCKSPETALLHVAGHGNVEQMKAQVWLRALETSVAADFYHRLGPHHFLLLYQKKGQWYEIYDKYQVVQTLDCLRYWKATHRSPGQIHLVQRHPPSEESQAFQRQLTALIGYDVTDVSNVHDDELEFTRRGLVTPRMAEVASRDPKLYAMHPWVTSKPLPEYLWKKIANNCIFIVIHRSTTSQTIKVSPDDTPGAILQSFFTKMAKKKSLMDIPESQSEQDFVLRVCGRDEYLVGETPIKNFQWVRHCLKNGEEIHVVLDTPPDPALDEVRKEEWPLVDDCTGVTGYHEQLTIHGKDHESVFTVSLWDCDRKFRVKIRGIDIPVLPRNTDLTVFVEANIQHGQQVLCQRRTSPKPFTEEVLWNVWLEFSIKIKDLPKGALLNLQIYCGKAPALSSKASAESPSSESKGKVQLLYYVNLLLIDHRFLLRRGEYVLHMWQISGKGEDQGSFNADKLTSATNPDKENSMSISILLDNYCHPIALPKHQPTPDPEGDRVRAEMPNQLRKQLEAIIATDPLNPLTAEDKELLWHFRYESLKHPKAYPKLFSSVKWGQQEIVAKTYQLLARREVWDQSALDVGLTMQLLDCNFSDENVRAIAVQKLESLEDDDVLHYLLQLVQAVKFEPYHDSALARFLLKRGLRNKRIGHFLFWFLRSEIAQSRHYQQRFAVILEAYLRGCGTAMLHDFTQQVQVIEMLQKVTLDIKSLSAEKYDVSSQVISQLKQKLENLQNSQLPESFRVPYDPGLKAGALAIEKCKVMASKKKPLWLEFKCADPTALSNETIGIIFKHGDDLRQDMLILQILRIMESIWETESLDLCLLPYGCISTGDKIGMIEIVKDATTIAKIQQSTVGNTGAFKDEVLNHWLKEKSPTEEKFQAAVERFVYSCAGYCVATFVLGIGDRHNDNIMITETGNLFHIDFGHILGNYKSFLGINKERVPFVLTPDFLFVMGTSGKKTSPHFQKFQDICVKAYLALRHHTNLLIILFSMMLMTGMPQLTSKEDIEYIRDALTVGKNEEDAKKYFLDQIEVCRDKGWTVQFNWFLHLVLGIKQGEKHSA
The assay can be described thus: PI 3-kinase p120γ enzyme activity inhibition test. Conditions: ATP 10.0 μM, PIP2-PS 5.0 μM, 30° C., 2 hours; read-out: IC50 value. The format is biochemical. Here is the method:
Using human PI 3-kinase p120γ (manufactured by Millipore Corporation) and a mixed micellized product (hereinafter abbreviated as PIP2-PS) of the substrate thereof, L-a-Phosphatidyl-D-myo-inositol-4,5-bisphosphate (product of Calbiochem, hereinafter abbreviated as PIP2), and L-a-Phosphatidyl-L-Serine (manufactured by Sigma, hereinafter abbreviated as PS), the compound of the present invention was examined for the inhibitory action on PI3 Kinase p120γ enzyme activity (Km=8.9 μM for ATP, Km=4.0 μM for PIP2-PS).
PIP2-PS was prepared by mixing 500 μM of PIP2 and 2.5 nM of PS and sonicating the mixture for 40 minutes while ice cooling to cause micellization. ATP (final concentration 10.0 μM), [γ-^33P] ATP (final concentration 10 μCi/ml), PIP2-PS (final concentration 5.0 μM) and DMSO solutions of the test compound in different concentrations (compound final concentration 1.0×10^−5 to 2.4×10^−12 M, DMSO final concentration 0.1%) were added to PI 3-kinase p120γ, stirred and reacted at 30° C. for 2 hours. Using Phospholipid-Coated FlashPlate Microplates, 96-Well and Phospholipid FlashPlate Coating Buffer (both manufactured by PerkinElmer Co., Ltd.), PIP2-PS and phosphorylated PIP2-PS were allowed to be adsorbed to the well wall of the plate and collected. The well was washed twice with PBS (Phosphate-Buffered Saline) and dried. The radioactivity was measured using Top Count NXT (manufactured by PerkinElmer Co., Ltd.), whereby the phosphorylated amount (a) of PIP2-PS at the time of compound addition was calculated.
The same procedure was carried out in the absence of the test compound and the phosphorylated amount (b) of PIP2-PS was calculated. Further, the same procedure was carried out in the absence of both of the substrate and the test compound, and the PIP2-PS phosphorylated amount (c) of the background was calculated.
The PI3 Kinase p120γ enzyme activity suppression rate of the compound was calculated by the following formula. Suppression rate (%)=[1−(a−c)/(b−c)]×100
More specifically, using the suppression rate by the test compound of different concentrations, the IC50 value was calculated according to the dose-dependent inhibition curve analyzed by a data analysis software Origin (Lightstone Corp.) and used as the inhibitory activity index.
Broadly, the IC50 is the midpoint of a concentration-inhibition curve. As to `CC(=O)Nc1nc(C)c(-c2nc(CC(O)CC(F)(F)F)no2)s1` (stereo not shown) [Example 67], the IC50 is 428 nM.

Still in this assay, the particulars now being: ATP 10.0 μM, PIP2-PS 5.0 μM, 30° C., 2 hours; read-out: PI3Kγ (IC50 value class).
Take `Cc1nc(NC(=O)C(C)C)sc1-c1nc(-c2cccnc2)no1` [Example 115, 2-Methyl-N-{4-methyl-5-[3-(pyridin-3-yl)-1,2,4-oxadiazol-5-yl]-1,3-thiazol-2-yl}propanamide]: the IC50 was 100 to 500 nM.
On the same count and under the same terms, in the case of `Cc1nc(NC(=O)NCC(=O)OC(C)(C)C)sc1-c1nc(-c2cccnc2)no1` [Example 126] it was < 100 nM; in that of `CC(=O)Nc1nc(C)c(-c2nc(CCCCOC(C)=O)no2)s1` [Example 59], 500 to 10000 nM; in that of `CC(=O)Nc1nc(C)c(-c2nc(-c3ccncc3)no2)s1` [Example 11], 500 to 10000 nM.
Turning to `COCCCC(=O)Nc1nc(C)c(-c2nc(-c3cccnc3)no2)s1` [Example 128], the IC50 was < 100 nM.
The same measure, in the same setting: with `Cc1nc(NC(=O)NCCC(=O)OC(C)(C)C)sc1-c1nc(CC(F)(F)F)no1` [Example 147] the figure was < 100 nM; with `Cc1nc(NC(=O)NCCOC(=O)C(C)(C)C)sc1-c1nc(-c2cccnc2)no1` [Example 135], < 100 nM.
`Cc1nc(N)sc1-c1nc(CC(F)(F)F)no1` [Example 146]: the IC50 was < 100 nM.
The same measure, in the same setting: in the case of `CC(=O)Nc1nc(C)c(-c2nc(CC(C)(C)CN)no2)s1` [Example 43] it was 500 to 10000 nM.
Same read-out and setting: in the case of `CC(=O)Nc1nc(C)c(-c2nc(C3CCOCC3)no2)s1` [Example 54] it was < 100 nM; in that of `Cc1nc(NC(=O)NCC(C)O)sc1-c1nc(-c2cccc(O)c2)no1` (stereo not shown) [Example 174], < 100 nM; in that of `Cc1nc(NC(=O)NCCC(=O)N(C)C)sc1-c1nc(-c2cccnc2)no1` [Example 131], < 100 nM.
Take `COCC(=O)Nc1nc(C)c(-c2nc(-c3cccc(CO)c3)no2)s1` [Example 173]: the IC50 was < 100 nM.
As for `CC(=O)Nc1nc(C)c(-c2nc(CC3(C)COC3)no2)s1` [Example 41], the IC50 was < 100 nM.
Still for that read-out and setting: in the case of `CC(=O)Nc1nc(C)c(-c2nc(C(=O)N3CCOCC3)no2)s1` [Example 72, N-{4-methyl-5-[3-(morpholin-4-ylcarbonyl)-1,2,4-oxadiazol-5-yl]-1,3-thiazol-2-yl}acetamide] it was 500 to 10000 nM; in that of `CC(=O)Nc1nc(C)c(-c2nc(CC(F)(F)F)no2)s1` [Example 19], < 100 nM.
Still for that read-out and setting: with `CC(=O)Nc1nc(C)c(-c2nc([C@H]3CCCO3)no2)s1` [Example 92] the figure was 100 to 500 nM; with `Cc1nc(NC(=O)NCCN)sc1-c1nc(-c2cccnc2)no1` [Example 138], < 100 nM; with `CC(=O)Nc1nc(C)c(-c2nc(C(=O)C(C)(C)C)no2)s1` [Example 88], 100 to 500 nM.
Regarding `CC(=O)Nc1nc(C)c(-c2nc(CCCOC(C)=O)no2)s1` [Example 30], the IC50 fell in the range of 500 to 10000 nM.
Same read-out and setting: in the case of `Cc1nc(NC(=O)NCCc2cn(C(C)C)cn2)sc1-c1nc(CC(C)(C)CO)no1` [Example 162] it was < 100 nM; in that of `CC(=O)Nc1nc(C)c(-c2nc(CCCCO)no2)s1` [Example 61], 100 to 500 nM.
Still for that read-out and setting: with `Cc1nc(NC(=O)NCCC(=O)OC(C)(C)C)sc1-c1nc(C2CCCCC2)no1` [Example 153] the figure was < 100 nM; with `CC(=O)Nc1nc(C)c(-c2nc(C3CC3(C)C)no2)s1` (stereo not shown) [Example 101], < 100 nM; with `Cc1nc(NC(=O)NCCC(=O)N2CCC(O)CC2)sc1-c1nc(CC(F)(F)F)no1` [Example 166], < 100 nM.
Same read-out and setting: with `CC(=O)Nc1nc(C)c(-c2nc(CC(C)(CO)CO)no2)s1` [Example 42] the figure was < 100 nM; with `Cc1nc(NC(=O)NCCO)sc1-c1nc(-c2cccnc2)no1` [Example 120], < 100 nM.
As for `Cc1nc(NC(=O)NCCC(=O)OC(C)(C)C)sc1-c1nc(-c2cccnc2)no1` [Example 117, Tert-butyl N-({4-methyl-5-[3-(pyridin-3-yl)-1,2,4-oxadiazol-5-yl]-1,3-thiazol-2-yl}carbamoyl)-β-alaninate], the IC50 was < 100 nM.
Turning to `CC(=O)Nc1nc(C)c(-c2nc(-c3ccccc3CO)no2)s1` [Example 29], the IC50 was < 100 nM.
For the compound `CC(=O)Nc1nc(C)c(-c2nc(CC(O)CC(F)(F)F)no2)s1` (stereo not shown) [Example 67], the IC50 was 100 to 500 nM.
For `CC(=O)Nc1nc(C)c(-c2nc(C(C)NC(C)=O)no2)s1` (stereo not shown) [Example 77], the half-maximal inhibitory concentration (IC50) lay in the range of 500 to 10000 nM.
Still for that read-out and setting: in the case of `Cc1nc(NC(=O)NCCCN2CCCC2=O)sc1-c1nc(CC(C)(C)CO)no1` [Example 159] it was < 100 nM; in that of `CC(=O)Nc1nc(C)c(-c2nc(CCc3cccnc3)no2)s1` [Example 12], 100 to 500 nM; in that of `CC(=O)Nc1nc(C)c(-c2nc(C3CCCCC3)no2)s1` [Example 9], < 100 nM.
Same read-out and setting: in the case of `Cc1nc(NC(=O)NCCC(=O)OC(C)(C)C)sc1-c1nc(CC(C)(C)O)no1` [Example 170] it was < 100 nM; in that of `COc1ccc(-c2noc(-c3sc(NC(C)=O)nc3C)n2)cn1` [Example 4], < 100 nM.
On the same count and under the same terms, in the case of `CCOC(=O)Nc1nc(C)c(-c2nc(CC(C)(C)CO)no2)s1` [Example 158] it was < 100 nM; in that of `CC(=O)Nc1nc(C)c(-c2nc(-c3ccc(=O)[nH]c3)no2)s1` [Example 40], 100 to 500 nM.
Take `Cc1nc(NC(=O)NCCN2CCOCC2)sc1-c1nc(-c2cccnc2)no1` [Example 121]: the IC50 was < 100 nM.
Regarding `CCOC(=O)CCNC(=O)Nc1nc(C)c(-c2nc(-c3cccnc3)no2)s1` [Example 119], the IC50 was < 100 nM.
The same measure, in the same setting: in the case of `CC(=O)Nc1nc(C)c(-c2nc(CC(C)(C)COS(C)(=O)=O)no2)s1` [Example 76] it was 100 to 500 nM; in that of `CC(=O)Nc1nc(C)c(-c2nc(C(C)(C)C)no2)s1` [Example 2, N-[5-(3-tert-butyl-1,2,4-oxadiazol-5-yl)-4-methyl-1,3-thiazol-2-yl]acetamide], < 100 nM; in that of `COCCNC(=O)Nc1nc(C)c(-c2nc(-c3cccnc3)no2)s1` [Example 122], < 100 nM.
In the case of `CCOC(=O)[C@H]1CCCC1NC(=O)Nc1nc(C)c(-c2nc(-c3cccnc3)no2)s1` (stereo partly shown) [Example 144], the IC50 was < 100 nM.
Same read-out and setting: in the case of `CC(=O)Nc1nc(C)c(-c2nc(C[C@H](C)CO)no2)s1` [Example 62] it was < 100 nM; in that of `COc1ncccc1-c1noc(-c2sc(NC(C)=O)nc2C)n1` [Example 16], < 100 nM.
`CC(=O)Nc1nc(C)c(-c2nc(C(C)(C)CO)no2)s1` [Example 65]: the IC50 was < 100 nM.
Same read-out and setting: in the case of `CC(=O)Nc1nc(C)c(-c2nc(Cc3cccnc3)no2)s1` [Example 8] it was 500 to 10000 nM; in that of `Cc1nc(NC(=O)NCCC(=O)NC(C)(C)C)sc1-c1nc(CC(C)(C)CO)no1` [Example 161], < 100 nM.
On the same count and under the same terms, with `CC(=O)Nc1nc(C)c(-c2nc(C(C)=O)no2)s1` [Example 60] the figure was < 100 nM.
Still for that read-out and setting: with `CC(=O)Nc1nc(C)c(-c2nc(-c3cccc(CO)c3)no2)s1` [Example 21] the figure was < 100 nM.
For `CC(=O)Nc1nc(C)c(-c2nc(CC(C)(C)CO)no2)s1` [Example 31, N-{5-[3-(3-hydroxy-2,2-dimethylpropyl)-1,2,4-oxadiazol-5-yl]-4-methyl-1,3-thiazol-2-yl}acetamide], the IC50 was < 100 nM.
The same measure, in the same setting: in the case of `CC(=O)Nc1nc(C)c(-c2nc(CC3CCOCC3)no2)s1` [Example 45] it was 100 to 500 nM; in that of `CC(=O)Nc1nc(C)c(-c2nc(-c3ccc(=O)n(C)c3)no2)s1` [Example 39], 100 to 500 nM.
